18 compounds from US9346815B2, “5-chloro-2-difluoromethoxyphenyl pyrazolopyrimidine compounds, compositions and methods of use thereof” (Genentech, Inc., priority 2014, dated 2016) can be followed below.

What is called Ki is a measure of affinity in units of concentration, obtained from inhibition or displacement.

Like-named read-outs stand apart in the source and are kept apart here.

The target in assay [1] is isolated recombinant JAK1 kinase domain (Homo sapiens (Human), UniProt P23458). The experiment in a line: JAK1 enzyme assay (Caliper LabChip, peptide phosphorylation). It counts as biochemical. As to conditions: isolated recombinant JAK1 kinase domain, 25 μM ATP.
Assay [2] has as its target isolated recombinant JAK2 kinase domain (Homo sapiens (Human), UniProt O60674). The assay is described as follows: JAK2 enzyme assay (Caliper LabChip, peptide phosphorylation). It counts as biochemical. The following applies: 25 μM ATP.
Assay [3] deals with JAK1-dependent STAT6 phosphorylation downstream of IL-13 stimulation in TF-1 human erythroleukemia cells. The experiment in a line: JAK1 pathway assay in TF-1 cells (IL-13-pSTAT6, MSD). Format: cell-based. The following applies: read-out: IL13-pSTAT6 EC50_TF-1. Put shortly:
(§1)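 Cells were preincubated with compounds (0.2% DMSO) for 30 min (TF-1, GM-CSF-starved overnight, serum-free OptiMEM, 300,000 cells/well) or 1 h (BEAS-2B, complete medium, 100,000 cells/well) at 37 °C.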

Assay [4] relates to JAK1-dependent STAT6 phosphorylation downstream of IL-13 stimulation in BEAS-2B human bronchial epithelial cells. The assay is described as follows: JAK1 pathway assay in BEAS-2B cells (IL-13-pSTAT6, MSD). Format: cell-based. The following applies: read-out: IL13-pSTAT6 EC50 (uM)_BEAS-2B. Put shortly:
as §1

isolated recombinant JAK2 kinase domain, sequence (O60674 849-1124): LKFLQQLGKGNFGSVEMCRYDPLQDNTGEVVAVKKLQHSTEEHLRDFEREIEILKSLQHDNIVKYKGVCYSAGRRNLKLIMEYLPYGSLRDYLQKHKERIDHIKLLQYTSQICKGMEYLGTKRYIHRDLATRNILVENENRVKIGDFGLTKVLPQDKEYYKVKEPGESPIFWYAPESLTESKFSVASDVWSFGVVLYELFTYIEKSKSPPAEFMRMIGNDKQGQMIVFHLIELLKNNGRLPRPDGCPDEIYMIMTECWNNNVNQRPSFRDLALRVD
isolated recombinant JAK1 kinase domain, sequence (P23458 875-1153): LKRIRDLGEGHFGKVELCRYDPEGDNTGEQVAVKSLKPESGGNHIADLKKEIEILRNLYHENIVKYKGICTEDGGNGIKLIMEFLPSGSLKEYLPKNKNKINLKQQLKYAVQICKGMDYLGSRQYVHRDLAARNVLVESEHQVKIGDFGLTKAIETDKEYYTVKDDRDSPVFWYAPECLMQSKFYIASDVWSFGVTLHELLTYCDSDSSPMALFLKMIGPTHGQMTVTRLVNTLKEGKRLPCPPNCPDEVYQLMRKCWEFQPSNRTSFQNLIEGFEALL

As to `CN1CC2CN(C(=O)Cn3cc(NC(=O)c4c(N)nn5cccnc45)c(-c4cc(Cl)ccc4OC(F)F)n3)CC2C1` (centres unmarked) [Example 9, 2-amino-N-[3-[5-chloro-2-(difluoromethoxy)phenyl]-1-[2-(2-methyl-1,3,3a,4,6,6a-hexahydropyrrolo[3,4-c]pyrrol-5-yl)-2-oxo-ethyl]pyrazol-4-yl]pyrazolo[1,5-a]pyrimidine-3-carboxamide], the figures for the Ki in assay [1] and in assay [2] were 0.71 nM and 0.28 nM, respectively. In addition, the EC50 came to 15.6 nM in assay [3] (Homo sapiens, TF-1, TF-1 cells) and 0.554 µM in assay [4].
For the compound `CC(C)CN1C[C@@H]2CN(C(=O)Cn3cc(NC(=O)c4cnn5cccnc45)c(-c4cc(Cl)ccc4OC(F)F)n3)C[C@@H]2C1` [Example 28, N-[1-[2-[(3aS,6aR)-2-isobutyl-1,3,3a,4,6,6a-hexahydropyrrolo[3,4-c]pyrrol-5-yl]-2-oxo-ethyl]-3-[5-chloro-2-(difluoromethoxy)phenyl]pyrazol-4-yl]pyrazolo[1,5-a]pyrimidine-3-carboxamide], the results for the Ki in assay [1] and in assay [2] were 0.82 nM and 0.84 nM, respectively. Further, the EC50 in assay [3] (Homo sapiens, TF-1, TF-1 cells) came to 3.5 nM; in assay [4] it was 0.177 µM.
In the case of `O=C(Nc1cn(CC(=O)N2C[C@H]3CN(CC4CCC(F)(F)CC4)C[C@H]3C2)nc1-c1cc(Cl)ccc1OC(F)F)c1cnn2cccnc12` [Example 33, N-[1-[2-[(3aR,6aS)-2-[(4,4-difluoro-cyclohexyl)methyl]-1,3,3a,4,6,6a-hexahydropyrrolo[3,4-c]pyrrol-5-yl]-2-oxo-ethyl]-3-[5-chloro-2-(difluoromethoxy)phenyl]pyrazol-4-yl]pyrazolo[1,5-a]pyrimidine-3-carboxamide], the Ki in assay [1] was 0.66 nM; in assay [2], 0.49 nM. Besides, the EC50 came to 6.2 nM in assay [3] (Homo sapiens, TF-1, TF-1 cells) and 0.0485 µM in assay [4].
In the same order, the values of `O=C(Nc1cn(CC(=O)N2C[C@H]3CN(CC4CCC4)C[C@H]3C2)nc1-c1cc(Cl)ccc1OC(F)F)c1cnn2cccnc12` [Example 40, N-[1-[2-[(3aR,6aS)-2-(cyclobutylmethyl)-1,3,3a,4,6,6a-hexahydropyrrolo[3,4-c]pyrrol-5-yl]-2-oxo-ethyl]-3-[5-chloro-2-(difluoromethoxy)phenyl]pyrazol-4-yl]pyrazolo[1,5-a]pyrimidine-3-carboxamide] are 0.65 nM, 0.61 nM, 3.8 nM and 0.128 µM.
Consider `CN1CC[C@@H]2[C@@H](CCN2C(=O)Cn2cc(NC(=O)c3cnn4cccnc34)c(-c3cc(Cl)ccc3OC(F)F)n2)C1` [Example 45, N-[1-[2-[(3aS,7aR)-5-methyl-3,3a,4,6,7,7a-hexahydro-2H-pyrrolo[3,2-c]pyridin-1-yl]-2-oxo-ethyl]-3-[5-chloro-2-(difluoromethoxy)phenyl]pyrazol-4-yl]pyrazolo[1,5-a]pyrimidine-3-carboxamide], for which the Ki in assay [1] was found to be 0.74 nM; in assay [2], 1.78 nM. Also, the EC50 in assay [3] (TF-1 cells) worked out at 7.1 nM; in assay [4], 0.0245 µM.
For the compound `CN1CC[C@H]2[C@H](CCN2C(=O)Cn2cc(NC(=O)c3cnn4cccnc34)c(-c3cc(Cl)ccc3OC(F)F)n2)C1` [Example 48, N-[1-[2-[(3aR,7aS)-5-methyl-3,3a,4,6,7,7a-hexahydro-2H-pyrrolo[3,2-c]pyridin-1-yl]-2-oxo-ethyl]-3-[5-chloro-2-(difluoromethoxy)phenyl]pyrazol-4-yl]pyrazolo[1,5-a]pyrimidine-3-carboxamide], the Ki in assay [1] came out at 0.94 nM; in assay [2], 1.85 nM. The EC50 in assay [3] (Homo sapiens, TF-1, TF-1 cells) was 13.7 nM; in assay [4], 0.0594 µM.
In the case of `NC1CCN(C(=O)Cn2cc(NC(=O)c3cnn4cccnc34)c(-c3cc(Cl)ccc3OC(F)F)n2)CC1` [Example 66, N-[1-[2-(4-amino-1-piperidyl)-2-oxo-ethyl]-3-[5-chloro-2-(difluoromethoxy)phenyl]pyrazol-4-yl]pyrazolo[1,5-a]pyrimidine-3-carboxamide], the Ki in assay [1] was 0.58 nM. The EC50 in assay [3] (Homo sapiens, TF-1, TF-1 cells) stood at 35.6 nM; in assay [4], 0.335 µM.
Consider `C[N+](C)(CCCc1ccccc1)C1CCN(C(=O)Cn2cc(NC(=O)c3cnn4cccnc34)c(-c3cc(Cl)ccc3OC(F)F)n2)CC1` [Example 124, [1-[2-[3-[5-chloro-2-(difluoromethoxy)phenyl]-4-(pyrazolo[1,5-a]pyrimidine-3-carbonylamino)pyrazol-1-yl]acetyl]-4-piperidyl]-dimethyl-(3-phenylpropyl)ammonium], for which the EC50 is 87.9 nM in assay [3] (Homo sapiens, TF-1, TF-1 cells) and 0.535 µM in assay [4].
As to `CN(C)C1CCN(c2nc(-c3cc(Cl)ccc3OC(F)F)c(NC(=O)c3cnn4cccnc34)s2)CC1` [Example 188, Pyrazolo[1,5-a]pyrimidine-3-carboxylic acid [4-(5-chloro-2-difluoromethoxy-phenyl)-2-(4-dimethylamino-piperidin-1-yl)-thiazol-5-yl]-amide], the inhibition constant Ki in assay [1] is 1.26 nM. In addition, the EC50 in assay [3] (Homo sapiens, TF-1, TF-1 cells) was determined as 5.8 nM; in assay [4], 0.0349 µM.
Consider `COCCN1CCN(C(=O)Cn2cc(NC(=O)c3cnn4cccnc34)c(-c3cc(Cl)ccc3OC(F)F)n2)CC1` [Example 229, N-[3-[5-chloro-2-(difluoromethoxy)phenyl]-1-[2-[4-(2-methoxyethyl)piperazin-1-yl]-2-oxo-ethyl]pyrazol-4-yl]pyrazolo[1,5-a]pyrimidine-3-carboxamide], for which the inhibition constant (Ki) in assay [1] was 0.38 nM. In addition, the EC50 in assay [3] (Homo sapiens, TF-1, TF-1 cells) stood at 3.3 nM; in assay [4] it was 0.0516 µM.
With `O=C(Nc1cn(CC(=O)N2CCCCC2)nc1-c1cc(Cl)ccc1OC(F)F)c1cnn2cccnc12` [Example 308, N-[3-[5-chloro-2-(difluoromethoxy)phenyl]-1-[2-oxo-2-(1-piperidyl)ethyl]pyrazol-4-yl]pyrazolo[1,5-a]pyrimidine-3-carboxamide], the Ki in assay [2] came to 0.55 nM. For the same compound, the EC50 was found to be 1.5 nM in assay [3] (Homo sapiens, TF-1, TF-1 cells) and 0.0236 µM in assay [4].
`O=C(Nc1cn(CC(=O)N2CCN(CC3CCOCC3)CC2)nc1-c1cc(Cl)ccc1OC(F)F)c1cnn2cccnc12` [Example 458, N-(3-(5-chloro-2-(difluoromethoxy)phenyl)-1-(2-oxo-2-(4-((tetrahydro-2H-pyran-4-yl)methyl)piperazin-1-yl)ethyl)-1H-pyrazol-4-yl)pyrazolo[1,5-a]pyrimidine-3-carboxamide]: the values for the Ki in assay [1] and in assay [2] were 0.47 nM and 0.9 nM, respectively. In assay [4], the EC50 came out at 0.0081 µM.
In the case of `O=C(Nc1cn(CC(=O)N2CCN(CCN3CCSCC3)CC2)nc1-c1cc(Cl)ccc1OC(F)F)c1cnn2cccnc12` [Example 460, N-(3-(5-chloro-2-(difluoromethoxy)phenyl)-1-(2-oxo-2-(4-(2-thiomorpholinoethyl)piperazin-1-yl)ethyl)-1H-pyrazol-4-yl)pyrazolo[1,5-a]pyrimidine-3-carboxamide], the Ki in assay [1] turned out to be 0.39 nM; in assay [2], 1.1 nM. Also, the EC50 in assay [4] is 0.0068 µM.
The matching figures for `N#CCCCN1CCN(C(=O)Cn2cc(NC(=O)c3cnn4cccnc34)c(-c3cc(Cl)ccc3OC(F)F)n2)CC1` [Example 461, N-(3-(5-chloro-2-(difluoromethoxy)phenyl)-1-(2-(4-(3-cyanopropyl)piperazin-1-yl)-2-oxoethyl)-1H-pyrazol-4-yl)pyrazolo[1,5-a]pyrimidine-3-carboxamide]: 0.4 nM, 0.84 nM and 0.0117 µM.
For the compound `N#CC1CCN(C2CCN(C(=O)Cn3cc(NC(=O)c4cnn5cccnc45)c(-c4cc(Cl)ccc4OC(F)F)n3)CC2)CC1` [Example 462, N-(3-(5-chloro-2-(difluoromethoxy)phenyl)-1-(2-(4-cyano-1,4′-bipiperidin-1′-yl)-2-oxoethyl)-1H-pyrazol-4-yl)pyrazolo[1,5-a]pyrimidine-3-carboxamide], the Ki in assay [1] came to 0.38 nM; in assay [2], 0.86 nM. Further, the EC50 in assay [4] came to 0.0108 µM.
For the compound `CC(F)(F)CNC1CCN(C(=O)Cn2cc(NC(=O)c3cnn4cccnc34)c(-c3cc(Cl)ccc3OC(F)F)n2)CC1` [Example 463, N-(3-(5-chloro-2-(difluoromethoxy)phenyl)-1-(2-(4-(2,2-difluoro-propylamino)piperidin-1-yl)-2-oxoethyl)-1H-pyrazol-4-yl)pyrazolo[1,5-a]pyrimidine-3-carboxamide], the results for the Ki in assay [1] and in assay [2] were 0.31 nM and 0.7 nM, respectively. For the same compound, in assay [4], the EC50 worked out at 0.007 µM.
Regarding `CN(CCCC#N)C1CCN(C(=O)Cn2cc(NC(=O)c3cnn4cccnc34)c(-c3cc(Cl)ccc3OC(F)F)n2)CC1` [Example 464, N-(3-(5-chloro-2-(difluoromethoxy)phenyl)-1-(2-(4-((3-cyanopropyl)(methyl)amino)piperidin-1-yl)-2-oxoethyl)-1H-pyrazol-4-yl)pyrazolo[1,5-a]pyrimidine-3-carboxamide], the values for the Ki in assay [1] and in assay [2] were 0.49 nM and 1.41 nM, respectively. In addition, in assay [4], the EC50 was found to be 0.0095 µM.
`CN(CC(C)(C)C#N)C1CCN(C(=O)Cn2cc(NC(=O)c3cnn4cccnc34)c(-c3cc(Cl)ccc3OC(F)F)n2)CC1` [Example 465, N-(3-(5-chloro-2-(difluoromethoxy)phenyl)-1-(2-(4-((2-cyano-2-methylpropyl)(methyl)amino)piperidin-1-yl)-2-oxoethyl)-1H-pyrazol-4-yl)pyrazolo[1,5-a]pyrimidine-3-carboxamide]: the Ki in assay [1] is 0.24 nM; in assay [2] it was 0.56 nM. Further, the EC50 in assay [4] was found to be 0.0114 µM.
